Reference: paper PMC8434109, “Synthesis and Biological Activity of a Cytostatic Inhibitor of MLLr Leukemia Targeting the DOT1L Protein” (Molecules, 2021)

How the values were obtained:
[1] = test system: HOXA9 and MEIS1 expression in MV4-11, MOLM13 and KOPN8 cells; test: Quantitative real-time PCR of MLL target genes; format: cell-based, human; settings: 0.1, 0.32, 1 and 3.2 µM; 6 days MV4-11 and MOLM13, 10 days KOPN8
Description: We then investigated the impact of the inhibition of H3K79me2 in MLLr cells on the expression of the pro-leukemic genes, HOXA9 and MEIS1. These are MLL target genes and have been characterized for being activated by the aberrant H3K79 methylation by DOT1L recruited at these genes by the MLL-fusion proteins and inhibited by DOTL1 inhibitors. […] The difference in kinetics is related to the doubling time of the cells (Table 1), indeed, we measured that the doubling time of MV4-11 is 12 h while the doubling time for MOLM-13 is 22 h.
The non-adherent cell lines MV4-11, MOLM-13, and KOPN8 exponentially growing cells were plated in 12-well plates (1 plate for each experiment) at a rate of 500,000 cells per well at a final volume of 2 mL. The cells were incubated in the presence of increasing inhibitor concentrations (0.1, 0.32, 1, 3.2, 10 µM). […]
Total RNA was isolated from the cell pellet of at least 1 × 10^6 cells using the RNAeasy mini kit (Cat No.: 74106, Qiagen) according to the manufacturer’s instructions. […] Complementary DNA (cDNA) was diluted at 1:10 and used as a template in quantitative real-time PCR (RT-qPCR) using the SYBR Green Master Kit (ref. 047516001, Roche, Boulogne-Billancourt, France) and LightCycler®480 (Roche, Boulogne-Billancourt, France) System according to the manufacturer’s instructions. […]

MV4-11 cells = test: Flow cytometry cell cycle analysis (propidium iodide); format: cell-based, human; settings: for percentage of cells in the G0/G1 phase / percentage of cells in the S phase: MV4-11, 3.2 µM
Description: A decrease in the S phase of the cell cycle was also observed from 24% (day 8) to 20% (day 10), 13% (day 12).
In a 12-well plate, 2 mL exponentially growing MV4-11 cells were plated with a density of 2 × 10^5 cells/mL. […] Culture media and drugs were replaced every 2–3 days and cells were split back to a density of 2 × 10^5 cells/mL at the same time. Cells were harvested on days 8, 10, 12 and split to allow the analysis of cell cycle and Annexin V staining simultaneously. The apoptosis ratio was detected by an Annexin V-APC/7-AAD double staining assay (SONY 3804610) and cells were prepared according to the manufacturer’s recommendations. Cells for the cell cycle analysis were collected by centrifugation at 500× g for 5 min at 4 °C. The pellets were washed once with cold PBS and then fixed with 70% ethanol on ice for 30 min. Afterwards, the cells were washed once with cold PBS and stained with propidium iodide (Invitrogen P3566) for 30 min at 37 °C. Samples were measured using an Attune NxT acoustic focusing cytometer (Life Technologies), data were analyzed by FlowJo.

PRMT4 = target: T1, PRMT4 (Homo sapiens, UniProt Q86X55); test: HMT selectivity panel (Reaction Biology); format: biochemical; settings: substrate Histone H3, read-out: Enzyme % Activity (relative to DMSO controls)
T1 construct: purchased Reaction Biology
T1 sequence (Q86X55 1-608): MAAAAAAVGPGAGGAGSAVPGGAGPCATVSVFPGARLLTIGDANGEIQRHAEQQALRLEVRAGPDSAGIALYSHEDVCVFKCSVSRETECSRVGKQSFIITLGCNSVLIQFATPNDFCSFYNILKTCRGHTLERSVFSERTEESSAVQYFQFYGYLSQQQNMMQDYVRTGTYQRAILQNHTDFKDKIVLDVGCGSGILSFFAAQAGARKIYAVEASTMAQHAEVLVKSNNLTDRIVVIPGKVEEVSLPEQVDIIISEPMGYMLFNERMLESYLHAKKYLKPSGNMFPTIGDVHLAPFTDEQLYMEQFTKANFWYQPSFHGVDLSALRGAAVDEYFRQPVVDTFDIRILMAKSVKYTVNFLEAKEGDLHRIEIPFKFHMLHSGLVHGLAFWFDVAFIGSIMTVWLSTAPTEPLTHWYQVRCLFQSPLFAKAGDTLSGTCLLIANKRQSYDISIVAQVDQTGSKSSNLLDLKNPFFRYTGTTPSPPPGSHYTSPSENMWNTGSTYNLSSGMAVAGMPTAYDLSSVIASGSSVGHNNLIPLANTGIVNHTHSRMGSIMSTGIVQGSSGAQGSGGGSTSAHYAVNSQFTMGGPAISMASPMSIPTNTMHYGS
Description: Table S1: Selectivity of the compound on a HMT panel (by Reaction Biology, USA) and on hDNMT3Acat (as described in Ceccaldi
Enzyme % Activity (relative to DMSO
Testing Concentration 10µM
Methyltransferase: Substrate: Activity enzyme in %

`CC(C)[C@H](CCCNC(=O)Nc1ccc(C(C)(C)C)cc1)N[C@H]1C[C@@H](n2cnc3c(N)ncnc32)[C@H](O)[C@@H]1O` [Dia2, 1-((S)-4-(((1S,2R,3S,4R)-4-(6-amino-9H-purin-9-yl)-2,3-dihydroxycyclopentyl)amino)-5-methylhexyl)-3-(4-(tert-butyl)phenyl)urea] was tested, and the “MEIS1 and HOXA9 expression” value [1] was “decrease in a dose-dependent manner”, the “effect on the cell cycle” value (MV4-11 cells; MV4-11, 1 µM) was “does not affect the cell cycle” and the “percentage of cells in the G0/G1 phase” value (MV4-11 cells; day 8) was 53%. For the same compound, the “percentage of cells in the S phase” value (MV4-11 cells; day 8) was 24%, the “percentage of cells in the G0/G1 phase” value (MV4-11 cells; day 10) was 41% and the “percentage of cells in the S phase” value (MV4-11 cells; day 10) was 20%. The “percentage of cells in the G0/G1 phase” value (MV4-11 cells; day 12) was 24%, the “percentage of cells in the S phase” value (MV4-11 cells; day 12) was 13% and the remaining activity at 10 µM (PRMT4) was 92 ± 1%.
